Patent US11180483B2, “Substituted reverse pyrimidine Bmi-1 inhibitors” (PTC Therapeutics, Inc., priority 2012, dated 2021)

Tested on: Bmi-1
Assay: Sandwich ELISA Assay (Bmi-1 ELISA) in HT-1080 cells
Type: cell-based
Method in brief: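 HT-1080 cells exposed to compound in 0.5% final DMSO for 40-48 h at 37 °C, then lysed. Bmi-1 was quantified by sandwich ELISA: mouse monoclonal capture, rabbit anti-Bmi-1 detection, HRP anti-rabbit and TMB. Read at OD450 (OD570 reference) against a recombinant GST-Bmi-1 standard curve (0-8000 pg/mL).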

Q: Which EC50 does the source give for Nc1nc(-n2c(C3CC3)nc3c(F)cccc32)nc(Nc2ccc(OC(F)F)cc2)c1F [Cpd 141, 2-(2-cyclopropyl-4-fluoro-1H-benzimidazol-1-yl)-N-[4-(difluoromethoxy)phenyl]-5-fluoropyrimidine-4,6-diamine] here?
A: Its EC50 is 10 to 100 nM.

Q: Nc1nc(-n2c(C3CC3)nc3c(F)cccc32)nc(Nc2ccc(OC(F)F)c(F)c2)c1F [Cpd 142, 2-(2-cyclopropyl-4-fluoro-1H-benzimidazol-1-yl)-N-[4-(difluoromethoxy)-3-fluorophenyl]-5-fluoropyrimidine-4,6-diamine] was tested. Which EC50 did it give?
A: The EC50 was 10 to 100 nM.

Q: For CSc1ccc(Nc2cc(N)nc(-n3c(C)nc4ccccc43)n2)cc1 [Cpd 146, 2-(2-methyl-1H-benzimidazol-1-yl)-N-[4-(methylsulfanyl]phenyl]pyrimidine-4,6-diamine], which EC50 is on record?
A: Its EC50 is 10 to 100 nM.

Q: With CC1(c2nc3ccccc3n2-c2nc(N)cc(Nc3ccc(C(F)(F)F)cc3)n2)CC1 [Cpd 147, 2-[2-(1-methylcyclopropyl)-1H-benzimidazol-1-yl]-N-[4-(trifluoromethyl]phenyl]pyrimidine-4,6-diamine] as the compound, how does the EC50 read?
A: The EC50 was 100 to 3000 nM.

Q: For CC1(c2nc3ccccc3n2-c2nc(N)cc(Nc3ccc(OC(F)F)cc3)n2)CC1 [Cpd 148, N-[4-(difluoromethoxy)phenyl]-2-[2-(1-methylcyclopropyl)-1H-benzimidazol-1-yl]pyrimidine-4,6-diamine], which EC50 is on record?
A: The EC50 was 100 to 3000 nM.

Q: How did the EC50 turn out when Cc1nn2ccccc2c1-c1nc(N)cc(Nc2ccc(C(F)(F)F)cc2)n1 [Cpd 154, 2-(2-methylpyrazolo[1,5-a]pyridin-3-yl)-N-[4-(trifluoromethyl]phenyl]pyrimidine-4,6-diamine] was run?
A: Its EC50 is 100 to 3000 nM.

Q: How did the EC50 turn out when Nc1nc(-n2c(C3CC3)nc3ncc(F)cc32)nc(Nc2ccc(OC(F)F)cc2)c1F [Cpd 155, 2-(2-cyclopropyl-6-fluoro-1H-imidazo[4,5-b]pyridin-1-yl)-N-[4-(difluoromethoxy)phenyl]-5-fluoropyrimidine-4,6-diamine] was run?
A: The EC50 was 10 to 100 nM.

Q: For CCc1nc2ccccc2n1-c1nc(N)cc(Nc2ccc(OC(F)F)cc2)n1 [Cpd 156, N-[4-(difluoromethoxy)phenyl]-2-(2-ethyl-1H-benzimidazol-1-yl)pyrimidine-4,6-diamine], which EC50 is on record?
A: Its EC50 is 1 to 10 nM.

Q: CCc1nc2ccccc2n1-c1nc(N)cc(Nc2ccc(OC(F)F)c(F)c2)n1 [Cpd 157, N-[4-(difluoromethoxy)-3-fluorophenyl]-2-(2-ethyl-1H-benzimidazol-1-yl)pyrimidine-4,6-diamine] was tested. Which EC50 did it give?
A: The EC50 was 10 to 100 nM.

Q: Cc1nc2cc(Cl)ccc2n1-c1nc(N)c(F)c(Nc2ccc(C(F)(F)F)cc2)n1 [Cpd 158, 2-(5-chloro-2-methyl-1H-benzimidazol-1-yl)-5-fluoro-N-[4-(trifluoromethyl)phenyl]pyrimidine-4,6-diamine] was tested. Which EC50 did it give?
A: The EC50 was 100 to 3000 nM.

Q: Cc1nc2cc(Cl)ccc2n1-c1nc(N)c(F)c(Nc2ccc(OC(F)F)cc2)n1 [Cpd 159, 2-(5-chloro-2-methyl-1H-benzimidazol-1-yl)-N-[4-(difluoromethoxy)phenyl]-5-fluoropyrimidine-4,6-diamine] was tested. Which EC50 did it give?
A: The EC50 was 100 to 3000 nM.

Q: Cc1nc2ccc(Cl)cc2n1-c1nc(N)c(F)c(Nc2ccc(C(F)(F)F)cc2)n1 [Cpd 160, 2-(6-chloro-2-methyl-1H-benzimidazol-1-yl)-5-fluoro-N-[4-(trifluoromethyl)phenyl]pyrimidine-4,6-diamine] was tested. Which EC50 did it give?
A: The EC50 was 10 to 100 nM.

Q: Cc1nc2ccc(Cl)cc2n1-c1nc(N)c(F)c(Nc2ccc(OC(F)F)cc2)n1 [Cpd 161, 2-(6-chloro-2-methyl-1H-benzimidazol-1-yl)-N-[4-(difluoromethoxy)phenyl]-5-fluoropyrimidine-4,6-diamine] was tested. Which EC50 did it give?
A: Its EC50 is 10 to 100 nM.

Q: How did the EC50 turn out when CCc1nc2cc(F)ccc2n1-c1nc(N)c(F)c(Nc2ccc(C(F)(F)F)cc2)n1 [Cpd 162, 2-(2-ethyl-5-fluoro-1H-benzimidazol-1-yl)-5-fluoro-N-[4-(trifluoromethyl)phenyl]pyrimidine-4,6-diamine] was run?
A: The EC50 was 10 to 100 nM.

Q: With CCc1nc2cc(F)ccc2n1-c1nc(N)c(F)c(Nc2ccc(OC(F)F)cc2)n1 [Cpd 163, N-[4-(difluoromethoxy)phenyl]-2-(2-ethyl-5-fluoro-1H-benzimidazol-1-yl)-5-fluoropyrimidine-4,6-diamine] as the compound, how does the EC50 read?
A: Its EC50 is 10 to 100 nM.

Q: With CCc1nc2ccc(F)cc2n1-c1nc(N)c(F)c(Nc2ccc(C(F)(F)F)cc2)n1 [Cpd 164, 2-(2-ethyl-6-fluoro-1H-benzimidazol-1-yl)-5-fluoro-N-[4-(trifluoromethyl)phenyl]pyrimidine-4,6-diamine] as the compound, how does the EC50 read?
A: Its EC50 is 10 to 100 nM.

Q: Which EC50 does the source give for CCc1nc2ccc(F)cc2n1-c1nc(N)c(F)c(Nc2ccc(OC(F)F)cc2)n1 [Cpd 165, N-[4-(difluoromethoxy)phenyl]-2-(2-ethyl-6-fluoro-1H-benzimidazol-1-yl)-5-fluoropyrimidine-4,6-diamine] here?
A: Its EC50 is 1 to 10 nM.

Q: Cc1nc2ccccc2n1-c1nc(N)c(Cl)c(Nc2ccc(C(F)(F)F)cc2)n1 [Cpd 166, 5-chloro-2-(2-methyl-1H-benzimidazol-1-yl)-N-[4-(trifluoromethyl)phenyl]pyrimidine-4,6-diamine] was tested. Which EC50 did it give?
A: The EC50 was 100 to 3000 nM.

Q: Which EC50 does the source give for CCc1nc2ccccc2n1-c1nc(N)c(Cl)c(Nc2ccc(C(F)(F)F)cc2)n1 [Cpd 167, 5-chloro-2-(2-ethyl-1H-benzimidazol-1-yl)-N-[4-(trifluoromethyl)phenyl]pyrimidine-4,6-diamine] here?
A: Its EC50 is 10 to 100 nM.

Q: For CCc1nc2ccccc2n1-c1nc(N)c(Cl)c(Nc2ccc(OC(F)F)cc2)n1 [Cpd 168, 5-chloro-N-[4-(difluoromethoxy)phenyl]-2-(2-ethyl-1H-benzimidazol-1-yl)pyrimidine-4,6-diamine], which EC50 is on record?
A: Its EC50 is 100 to 3000 nM.

Q: With Cc1nc2ccccn2c1-c1nc(N)c(F)c(Nc2ccc(C(F)(F)F)cc2)n1 [Cpd 169, 5-fluoro-2-(2-methylimidazo[1,2-a]pyridin-3-yl)-N-[4-(trifluoromethyl)phenyl]pyrimidine-4,6-diamine] as the compound, how does the EC50 read?
A: Its EC50 is 100 to 3000 nM.

Q: How did the EC50 turn out when Cc1nc2ccccn2c1-c1nc(N)c(F)c(Nc2ccc(OC(F)F)cc2)n1 [Cpd 170, N-[4-(difluoromethoxy)phenyl]-5-fluoro-2-(2-methylimidazo[1,2-a]pyridin-3-yl)pyrimidine-4,6-diamine] was run?
A: Its EC50 is 100 to 3000 nM.

Q: For Cc1nc2ccccn2c1-c1nc(N)c(F)c(Nc2ccc(OC(F)F)c(F)c2)n1 [Cpd 171, N-[4-(difluoromethoxy)-3-fluorophenyl]-5-fluoro-2-(2-methylimidazo[1,2-a]pyridin-3-yl)pyrimidine-4,6-diamine], which EC50 is on record?
A: The EC50 was 100 to 3000 nM.

Q: With Cc1c(N)nc(-n2c(C)nc3ccccc32)nc1Nc1ccc(C(F)(F)F)cc1 [Cpd 172, 5-methyl-2-(2-methyl-1H-benzimidazol-1-yl)-N-[4-(trifluoromethyl)phenyl]pyrimidine-4,6-diamine] as the compound, how does the EC50 read?
A: Its EC50 is 100 to 3000 nM.

Q: With Cc1nn2ccccc2c1-c1nc(N)c(F)c(Nc2ccc(OC(F)F)cc2)n1 [Cpd 173, N-[4-(difluoromethoxy)phenyl]-5-fluoro-2-(2-methylpyrazolo[1,5-a]pyridin-3-yl)pyrimidine-4,6-diamine] as the compound, how does the EC50 read?
A: Its EC50 is 100 to 3000 nM.

Q: Cc1nn2ccccc2c1-c1nc(N)c(F)c(Nc2ccc(C(F)(F)F)cc2)n1 [Cpd 177, 5-fluoro-2-(2-methylpyrazolo[1,5-a]pyridin-3-yl)-N-[4-(trifluoromethyl)phenyl]pyrimidine-4,6-diamine] was tested. Which EC50 did it give?
A: Its EC50 is 100 to 3000 nM.

Q: Nc1nc(-c2c(C(F)(F)F)nc3ccc(F)cn23)nc(Nc2ccc(C(F)(F)F)cc2)c1F [Cpd 178, 5-fluoro-2-[6-fluoro-2-(trifluoromethyl)imidazo[1,2-a]pyridin-3-yl]-N-[4-(trifluoromethyl)phenyl]pyrimidine-4,6-diamine] was tested. Which EC50 did it give?
A: The EC50 was 100 to 3000 nM.
